{
  "source": "patent US7846973B2",
  "about": "“Chemical process and new crystalline form” (Theravance, Inc., priority 2004, dated 2010)",
  "assay": "Relative thermodynamic stability of crystalline forms of compound (Ia) monohydrochloride",
  "assay_type": "physicochemical",
  "conditions": "Form 2 versus Form 1 (form of WO 2004/106279)",
  "text": "Such methods can be used to provide seeds of Form 2 material.",
  "note": "Counter-ions that a name gives are not always drawn.",
  "data": [
    {"compound": "O=CNc1cc([C@@H](O)CNCCc2ccc(NC[C@H](O)c3ccccc3)cc2)ccc1O", "note": "[Form 2, N-{2-[4-((R)-2-hydroxy-2-phenylethylamino)phenyl]ethyl}-(R)-2-hydroxy-2-(3-formamido-4-hydroxyphenyl)ethylamine monohydrochloride]", "values": [
      {"measurement": "thermodynamic stability of Form 2 crystals compared with Form 1 crystals", "value": "more thermodynamically stable"}
    ]}
  ]
}
